Measured values taken from the supplement of paper PMC10307832.

Legend:
Experiment in all cases: relative viability (nuclei count vs DMSO), 5 days (fraction); higher = more cells survive
[1] = compound: C=CC(=O)N1CCC[C@@H](n2nc(-c3ccc(Oc4ccccc4)cc3)c3c(N)ncnc32)C1 [Ibrutinib] + COc1cc2c(Oc3ccc(NC(=O)C4(C(=O)Nc5ccc(F)cc5)CC4)cc3F)ccnc2cc1OCCCN1CCOCC1 [Foretinib] (partner 0.25 µM)
How it was run: (§1)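 Relative viability divides the nuclei count in treated wells by that in vehicle wells. Lung cancer cell lines were seeded in 1536-well plates, dosed by pin tool the next day, and fixed and stained after 5 days in one step with final 0.05% Triton X-100, 1% formaldehyde and 1 ug/ml Hoechst. Dosing was a single drug or a fixed anchor-drug dose plus five library-drug doses (not always all listed) in √10 steps, and values are medians of duplicate plates imaged at 4×.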

[2] = compound: C=CCc1cccc(/C=N/NC(=O)CN2CCN(Cc3ccccc3)CC2)c1O [PAC-1] + Cc1nc(Nc2ncc(C(=O)Nc3c(C)cccc3Cl)s2)cc(N2CCN(CCO)CC2)n1 [Dasatinib] (partner 0.075 µM)
How it was run: as §1

[3] = compound: C=CCc1cccc(/C=N/NC(=O)CN2CCN(Cc3ccccc3)CC2)c1O [PAC-1] + CC1(C)CCC(c2ccc(Cl)cc2)=C(CN2CCN(c3ccc(C(=O)NS(=O)(=O)c4ccc(N[C@H](CCN5CCOCC5)CSc5ccccc5)c(S(=O)(=O)C(F)(F)F)c4)cc3)CC2)C1 [Navitoclax] (partner 0.5 µM)
How it was run: as §1

[4] = compound: C=CCc1cccc(/C=N/NC(=O)CN2CCN(Cc3ccccc3)CC2)c1O [PAC-1] + COc1cc2c(Oc3ccc(NC(=O)C4(C(=O)Nc5ccc(F)cc5)CC4)cc3F)ccnc2cc1OCCCN1CCOCC1 [Foretinib] (partner 0.25 µM)
How it was run: as §1

Cell Line | relative viability ([1]; first compound 0.005 µM) | relative viability ([1]; first compound 0.01581 µM) | relative viability ([1]; first compound 0.05 µM) | relative viability ([1]; first compound 0.1581 µM) | relative viability ([1]; first compound 0.5 µM) | relative viability ([2]; first compound 0.02 µM) | relative viability ([2]; first compound 0.06325 µM) | relative viability ([2]; first compound 0.2 µM) | relative viability ([2]; first compound 2 µM) | relative viability ([3]; first compound 0.02 µM) | relative viability ([3]; first compound 0.06325 µM) | relative viability ([3]; first compound 0.2 µM) | relative viability ([3]; first compound 2 µM) | relative viability ([4]; first compound 0.02 µM) | relative viability ([4]; first compound 0.06325 µM) | relative viability ([4]; first compound 0.2 µM) | relative viability ([4]; first compound 2 µM)
HCC-827 | 1.04 | 0.993 | 0.813 | 1.03 | 0.165 | 0.277 | 0.325 | 0.297 | 0.293 | 1.04 | 0.986 | 0.983 | 0.989 | 1.11 | 1.03 | 0.964 | 1.03
HOP-62 | 1.19 | 1.11 | 1.17 | 1.21 | 1.3 | 0.665 | 0.68 | 0.623 | 0.641 | 1.04 | 1.02 | 0.58 | 0.988 | 1.1 | 1.13 | 1.1 | 1.17
IA-LM | 1.11 | 1.04 | 1.1 | 1.24 | 1.1 |  |  |  |  | 0.78 | 0.92 | 0.632 | 0.657 | 1.17 | 1.19 | 1.11 | 1.17
LC-2-ad | 0.958 | 0.747 | 0.856 | 0.886 | 0.836 | 0.552 | 0.629 | 0.603 | 0.489 | 0.464 | 0.427 | 0.35 | 0.331 | 0.968 | 0.875 | 0.887 | 0.954
LCLC-97TM1 | 0.945 | 0.881 | 1 | 1 | 0.843 | 0.692 | 0.848 | 0.748 | 0.911 |  | 0.395 | 0.307 | 0.62 | 0.989 | 1 | 0.945 | 0.955
LCLC-103H | 0.809 | 0.623 | 0.792 | 0.835 | 0.728 | 0.485 | 0.472 | 0.409 | 0.487 |  |  |  |  | 0.734 | 0.785 | 0.713 | 0.689
LK-2 |  |  | 1.32 | 1.27 | 0.996 | 0.259 | 0.332 | 0.241 | 0.31 | 0.816 | 0.805 | 0.88 | 0.845 | 1.11 | 1.16 | 0.858 | 1.12
LOU-NH91 | 0.861 | 0.769 | 0.679 | 0.913 | 0.568 | 0.505 | 0.551 | 0.541 | 0.599 | 0.651 | 0.718 | 0.672 | 0.673 | 0.919 | 0.931 | 0.982 | 0.898
LU99A | 0.734 | 0.703 | 0.856 | 0.945 | 0.497 | 0.549 | 0.579 | 0.498 | 0.505 | 0.939 | 0.836 | 0.717 | 0.801 | 0.91 | 0.854 | 0.818 | 0.774
LXF-289 | 0.946 | 0.958 | 0.995 | 0.917 | 0.956 | 0.228 | 0.226 | 0.192 | 0.223 | 0.944 | 0.948 | 0.932 | 0.927 | 0.907 | 1.02 | 1 | 0.934
NCI-H23 | 0.988 | 0.884 | 0.939 | 0.914 | 0.641 | 0.734 | 0.887 | 0.826 | 0.948 | 0.569 | 0.891 | 0.793 | 0.881 | 1.08 | 0.954 | 0.844 | 0.965
NCI-H322M | 0.872 | 0.864 | 0.899 | 0.989 | 0.642 | 0.226 | 0.264 | 0.259 | 0.256 | 1.23 | 1.27 | 1.28 | 1.23 | 0.859 | 0.948 | 0.986 | 0.887
NCI-H358 | 0.294 |  | 0.35 | 0.551 | 0.291 | 0.179 | 0.164 | 0.158 | 0.135 |  |  |  |  | 0.622 | 0.573 | 0.645 | 0.574
NCI-H522 |  |  |  |  |  | 0.881 | 0.91 | 0.894 | 0.899 |  |  |  |  |  |  |  | 
NCI-H650 | 1.07 | 0.94 | 1.09 | 1.25 | 1.17 | 0.426 | 0.455 | 0.406 | 0.45 |  |  |  |  | 1.08 | 1.07 | 0.992 | 0.988
NCI-H661 | 1.06 | 0.839 | 0.842 | 0.984 | 0.616 | 0.992 | 1 | 0.89 | 0.892 |  |  |  |  | 1.05 | 0.963 | 0.967 | 0.957
NCI-H1299 | 0.557 | 1.07 | 1.14 | 1.09 | 1.11 |  |  |  |  | 1.04 | 1.03 | 1.06 | 1.04 | 1.14 | 1.04 | 1.04 | 1.06
NCI-H1563 | 0.985 | 0.92 | 0.935 | 0.998 | 0.88 | 0.446 | 0.431 | 0.44 | 0.495 |  |  |  |  | 0.928 | 1 | 0.976 | 0.935
NCI-H1623 | 0.8 | 0.701 | 0.568 | 0.692 | 0.289 | 0.513 | 0.556 | 0.605 | 0.533 |  |  |  |  | 0.86 | 0.851 | 0.961 | 0.868
NCI-H1703 |  | 0.322 | 0.317 | 0.307 | 0.338 |  |  |  |  | 1.4 | 0.998 | 0.958 | 0.959 | 0.359 | 0.434 | 0.337 | 0.309
NCI-H1792 |  |  |  |  |  | 0.996 | 0.77 | 0.763 | 0.755 | 0.613 | 0.563 | 0.621 | 0.681 |  |  |  | 
NCI-H2342 | 0.9 | 1 | 0.812 | 1.12 | 0.801 | 0.302 | 0.311 | 0.295 | 0.302 |  |  |  |  | 1.15 | 1.04 | 1.03 | 1.05
SW 900 |  |  | 0.861 | 0.683 | 0.836 | 0.766 | 0.467 | 0.435 | 0.927 |  |  |  |  | 1.14 | 0.976 | 0.864 | 0.717
